This is an account of results in the supplement of paper PMC10307832.

Common to all, as to assay: relative viability (nuclei count vs DMSO), 5 days (fraction); higher = more cells survive
Compound in test [1]: COc1cc2nccc(Oc3ccc(NC(=O)C4(C(=O)Nc5ccc(F)cc5)CC4)cc3)c2cc1OC [Cabozantinib] + CC1(C)CCC(c2ccc(Cl)cc2)=C(CN2CCN(c3ccc(C(=O)NS(=O)(=O)c4ccc(N[C@H](CCN5CCOCC5)CSc5ccccc5)c(S(=O)(=O)C(F)(F)F)c4)cc3)CC2)C1 [Navitoclax] (partner 0.5 µM)
The procedure, abridged: (§1)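 Relative viability was taken as the ratio of nuclei in treated wells to nuclei in vehicle wells. Lung cancer cell lines in 1536-well plates received compounds by pin tool one day after seeding, either one drug alone or a fixed anchor-drug dose plus five library-drug doses (not always all listed) in √10 steps. Nuclei were counted on 4× images after 5 days of treatment, and values are medians of duplicate plates.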

Compound in the test “Zosuquidar + Trametinib”: O[C@@H](COc1cccc2ncccc12)CN1CCN([C@@H]2c3ccccc3[C@@H]3[C@H](c4ccccc42)C3(F)F)CC1 [Zosuquidar] + CC(=O)Nc1cccc(-n2c(=O)n(C3CC3)c(=O)c3c(Nc4ccc(I)cc4F)n(C)c(=O)c(C)c32)c1 [Trametinib] (partner 0.02 µM)
The gist of the method:
as §1

Compound in the test “Kobe2602 + Tozasertib”: C1=CC(=CC=C1NC(=S)NNC2=C(C=C(C=C2[N+](=O)[O-])C(F)(F)F)[N+](=O)[O-])F [Kobe2602] + Cc1cc(Nc2cc(N3CCN(C)CC3)nc(Sc3ccc(NC(=O)C4CC4)cc3)n2)n[nH]1 [Tozasertib] (partner 0.1 µM)
The procedure, abridged: as §1

Compound in the test “Zosuquidar + Lapatinib”: O[C@@H](COc1cccc2ncccc12)CN1CCN([C@@H]2c3ccccc3[C@@H]3[C@H](c4ccccc42)C3(F)F)CC1 [Zosuquidar] + CS(=O)(=O)CCNCc1ccc(-c2ccc3ncnc(Nc4ccc(OCc5cccc(F)c5)c(Cl)c4)c3c2)o1 [Lapatinib] (partner 2 µM)
The procedure, abridged:
as §1

For the cell line UMC-11, the relative viability in test [1] (first compound 0.02 µM) was determined as 0.298; in test [1] (first compound 0.06325 µM), 0.332; in test [1] (first compound 0.2 µM) it was 0.34; in test [1] (first compound 0.6325 µM), 0.329; in test [1] (first compound 2 µM) it was 0.297; with Zosuquidar + Trametinib (first compound 0.01 µM), 0.668. In addition, the relative viability was found to be 0.758 with Zosuquidar + Trametinib (first compound 0.03162 µM); 0.623 with Zosuquidar + Trametinib (first compound 0.1 µM); 0.833 with Zosuquidar + Trametinib (first compound 0.3162 µM); 0.606 with Zosuquidar + Trametinib (first compound 1 µM); 0.215 with Kobe2602 + Tozasertib (first compound 0.2 µM); 0.219 with Kobe2602 + Tozasertib (first compound 0.6325 µM). The relative viability in the test with Kobe2602 + Tozasertib (first compound 2 µM) is 0.189; with Kobe2602 + Tozasertib (first compound 6.325 µM), 0.197; in the test with Kobe2602 + Tozasertib (first compound 20 µM) it was 0.211; in the test with Zosuquidar + Lapatinib (first compound 0.01 µM), 0.895; in the test with Zosuquidar + Lapatinib (first compound 0.03162 µM) it was 1.07; in the test with Zosuquidar + Lapatinib (first compound 0.1 µM) it was 0.89. Also, the relative viability is 1.14 with Zosuquidar + Lapatinib (first compound 0.3162 µM) and 0.96 in the test with Zosuquidar + Lapatinib (first compound 1 µM).
